Test: xn = mol fraction of the nth substance listed, in the solute-free solvent

CN1CCN(C(=O)OC2c3nccnc3C(=O)N2c2ccc(Cl)cn2)CC1 (stereo unspecified) + CC(C)=O + O
solubility (g/100 g solution)
Conditions	x2 = 0.3	x2 = 0.4	x2 = 0.5	x2 = 0.6	x2 = 0.7	x2 = 0.8	x2 = 0.9
288.15 K	0.188	0.322	0.515	0.825	1.17	1.47	1.48
298.15 K	0.259	0.425	0.644	1.04	1.52	1.9	1.94
308.15 K	0.354	0.615	1.04	1.46	1.99	2.44	2.5
318.15 K	0.545	0.801	1.35	1.88	2.53	3.29	3.5
328.15 K	0.752	1.18	1.75	2.51	3.5	4.63	4.6

CCOC(=O)C1=CC2(CC)CCCN3CCc4c(n1c1ccccc41)C32 (stereo unspecified) + CCO + O
solubility (g/100 g solution)
Conditions	283.15 K	288.15 K	293.15 K	298.15 K	303.15 K	308.15 K	313.15 K	318.15 K	323.15 K
x2 = 0.2	0.00578	0.00816	0.0113	0.0153	0.0208	0.028	0.0375	0.0513	0.0683
x2 = 0.3	0.0454	0.0591	0.0768	0.0954	0.12	0.153	0.185	0.238	0.304
x2 = 0.4	0.106	0.138	0.178	0.211	0.277	0.346	0.421	0.524	0.668
x2 = 0.5	0.184	0.235	0.301	0.37	0.468	0.586	0.726	0.921	1.12
x2 = 0.6	0.257	0.331	0.43	0.52	0.639	0.824	0.996	1.25	1.54
x2 = 0.7	0.335	0.418	0.546	0.661	0.831	1.04	1.3	1.61	1.97
x2 = 0.8	0.372	0.479	0.612	0.757	0.941	1.21	1.47	1.87	2.26
x2 = 0.9	0.363	0.466	0.609	0.766	0.951	1.23	1.5	1.94	2.39

CCCCN1CCCCC1C(=O)Nc1c(C)cccc1C.Cl.O (stereo unspecified) + CO + O
solubility (g/100 g solution)
Conditions	293.15 K	298.15 K	303.15 K	308.15 K	313.15 K	318.15 K	323.15 K	328.15 K	333.15 K
x2 = 0.1	2.92	3.74	5.36	6.77	8.14	9.76	11.3	13.1	14.9
x2 = 0.2	3.04	4.11	5.31	7.06	9.3	11.4	14.1	15.8	19.5
x2 = 0.3	3.57	4.29	5.13	7.32	10.9	14.7	19.7	25.1	30.3
x2 = 0.4	3.64	4.18	5.89	7.92	11.9	17.4	22.3	28	33.2
x2 = 0.5	4.08	4.96	6.91	9.37	13.3	18.7	23.4	28.9	35.2
x2 = 0.6	5.88	6.91	8.26	10.9	14.8	19.1	23.4	29.8	35.8
x2 = 0.7	7.34	8.09	9.74	12.7	16.6	19.9	23.5	30.3	36.2
x2 = 0.8	8.13	9.32	12	14.3	17.3	20.6	24.5	30.2	–
x2 = 0.9	8.65	10.1	13	16	18.9	21.6	25.4	30.3	–

From the CheMixHub drug solubility set
